PMC5764437, “Discovery of novel, orally bioavailable, antileishmanial compounds using phenotypic screening” (PLoS Neglected Tropical Diseases, 2017)
≈ marks a conversion by molar mass, not a printed value. Entries after “also recorded” stand apart in the source; their conditions may differ.

Key:
[1] = Solubility in aqueous buffer; type: physicochemical; settings: citrate phosphate buffered saline, pH 7.4, aqueous buffer, kinetic from dmso stock
Protocol: Solubility assays were carried out on a Biomek FX lab automation workstation (Beckman Coulter, Inc., Fullerton, CA) using μSOL Evolution software (pION Inc.). Compound stock (10 mM in DMSO, 10 μL) was added to 1-propanol (190 μL) to make a reference stock plate. Reference stock solution (5 μL) was mixed with 1-propanol (70 μL) and citrate phosphate buffered saline (pH 7, 75 μL) to make the reference plate which was then measured with UV detection. Test compound stock (10 mM, 6 μL) was added to citrate phosphate buffered saline (594 μL) in a 96-well storage plate and mixed. […] The suspension was then filtered through a 96-well filter plate (pION Inc.). Filtrate (75 μL) was mixed with 1-propanol (75 μL) to make the sample plate, and the UV spectrum (250 nm −500 nm) of the sample plate was recorded. Calculation of solubility was carried out using μSOL Evolution software based on the AUC of the UV spectrum of the sample plate and the reference plate. All compounds were tested in triplicate.

Caco-2 cells = experiment: Caco-2 permeability assay; type: in vitro ADME; settings: predicted from solubility and membrane permeability
[2] = Liver microsomal stability, mouse; settings: female, liver microsomes, pH 7.4
Protocol: One part of 10 mM DMSO compound stock was mixed with 4 parts of acetonitrile to make 2 mM diluted compound stock in DMSO and acetonitrile. 29.1 µL diluted compound stock was added to 2.3 mL liver microsomal solution and vortexed to make microsomal solution with compound. […] For the 0 h time point, 450 µL pre-cooled (4 °C) internal standard (10 µM warfarin in methanol) was added to the first three columns before the reaction was initiated. 1.25 ml of microsome assay solution A (Fisher Scientific, #NC9255727) was combined with 0.25 ml of solution B (Fisher Scientific, #NC9016235) in 3.5 ml of potassium phosphate buffer (0.1 M, pH 7.4). 45 µL of this A+B solution was added to each well of the 96-well storage plate (reaction plate). Liquid in the first 3 columns was moved to another storage plate (quenched plate). The reaction plate was then sealed, incubated at 37 °C, and shaken at a speed of 60 rpm. Time points (0.5 h, 1 h, 2 h) were taken. At each time point, 450 µL pre-cooled internal standard was added to 3 rows in the reaction plate, and the liquid was then transferred to the quenched plate. […] 200 µL supernatant was transferred to a 96-well plate and analyzed by ultra-performance liquid chromatography-mass spectrometry (UPLC-MS) (Waters Inc.). The compounds and internal standard were detected by selected ion recording (SIR).

[3] = Mouse plasma protein binding assay (Rapid Equilibrium Dialysis); type: in vitro ADME; settings: mouse, mouse plasma, pH 7.4; for fraction unbound at 4 h, 0.8 μM: Conc. 0.8 μM; for fraction unbound at 4 h, 4 μM: Conc. 4 μM; for fraction unbound at 4 h, 20 μM: Conc. 20 μM
Protocol: (§1) A Rapid Equilibrium Dialysis (RED) Plate (Thermo Scientific, catalog #, PI-90007) was used to determine the percentage of compound binding to mouse plasma proteins (Thermo Scientific, catalog #, 50642085). The positive control for this experiment was propranolol HCl (295.807 g/mol) and the internal standard was warfarin in methanol (2 μM). 10 mM stocks of compound in DMSO were diluted with DMSO and acetonitrile to three different intermediate concentrations: high (2 mM), medium (0.4 mM) and low (0.08 mM) concentration in DMSO:acetonitrile (1:4, v:v). 10 mM stock of propranolol in DMSO were diluted to 0.4 mM concentration in DMSO:acetonitrile (1:4 v:v).
(§2) In 10 Eppendorf tubes, the control (10 μL) or each of three compound dilutions (10 μL) were each added to separate aliquots of 990 μL mouse plasma. Potassium phosphate buffer (500 μL, 0.1 M, pH 7.4, 37 °C) was placed in every white well of the RED plate and each plasma/compound mixture was added to each of 3 RED wells (300 μL). The RED plate holds triplicate samples of one control (final concentration […]) and one compound (final concentrations: 20 μM, 4 μM, […]). The RED Plate was sealed and incubated at 37 °C shaking at 250 rpm for 4 hours. After incubation, aliquots (50 μL) from each well in the RED plate were transferred to an assay plate (pION Inc., MA, #110323). In order to create a uniform matrix in every well of the assay plate, plasma (50 μL) was added to each of the wells that already contained buffer and potassium phosphate buffer (50 μL) was added to each of the wells that already contained plasma/compound. Pre-cooled internal standard (300 μL) was added to the assay plate to quench the reaction. The quenched plate was then centrifuged (5810R, Eppendorf, Westbury, NY) at 3000 rpm for 20 minutes.
(§3) The percentage of free compound [1] and bound compound [2] was calculated usng the AUC ratio of compound to warfarin from the SIR spectra. For reporting data, % Free = Concentration buffer/Concentration plasma *100 %, and % Bound = 100% - % Free.

mouse plasma proteins = experiment: as above; type: in vitro ADME; settings: across tested concentrations
Protocol: as §1, §2, §3

[4] = Dose-ranging tolerability / 10-day toxicity study in mice; type: in vivo, mouse
Protocol: Drug doses were chosen based on pilot toxicology and pharmacokinetic studies. Female BALB/C mice (compound 4) or C57BL6 (compound 5) of 17–21 grams were purchased from Charles River Laboratories (Wilmington, MA). Food and water were provided ad libitum. Two mice were used as control and another 5 mice were dosed daily via oral gavage (25 mg/kg with compound 4 and 50 mg/kg with compound 5). Every day blood was collected by retro-orbital bleed from one animal from the treatment group for pharmacokinetics. […] Each mouse received two blood collections and glucose measurements over the 10-day course of treatment.

[5] = as above; type: in vivo, mouse; settings: oral, 30 mg/kg
[6] = 50 mg/kg, 10-day toxicity study

Row | SMILES | solubility at 18 h [1] [µM] | Predicted absorption across the intestinal epithelium (Caco-2 cells) | half-life at 20 μM [2] [h] | fraction unbound at 4 h, 0.8 μM [3] | fraction unbound at 4 h, 4 μM [3] | fraction unbound at 4 h, 20 μM [3] | Binding to mouse plasma proteins (mouse plasma proteins) [%] | Tolerability of daily oral administration ([4]; daily oral, 25 mg/kg) | Seizures ([4]; oral gavage, 25 mg/kg) | Glucose level ([4]; oral gavage, 25 mg/kg, at Cmax and Cmin) | Seizures / seizure-like behavior ([4]; oral gavage, 50 mg/kg) | Glucose level in plasma ([4]; oral gavage, 50 mg/kg, untreated mice 185–251 mg/dl) [mg/dL] | Food intake [4, 6] | Weight loss [4, 6] | Tolerability (weight loss, appetite, other toxicity) [5]
1 | COc1ccc(-c2c(C(F)(F)F)oc3c(CN4CCN(C)CC4)c(O)ccc3c2=O)cc1OC [Compound 4] | 67 (≈ 32.1 µg/mL) | ~ 85% | > 4 | 0.54 | 0.599 | 0.534 | < 50 | well-tolerated in all study animals; also recorded: No weight loss or other toxicity was observed | no seizures were seen | remained within normal limits | half of the animals exhibited seizure-like behavior | 23 to 40 |  |  | 
2 | Cc1ccc(-c2nc3ccccc3s2)cc1NC(=O)c1cc([N+](=O)[O-])c(N2CCN(C)CC2)cc1Cl [Compound 5] | 0.3 (≈ 0.157 µg/mL) |  | > 4 | 0.65 | 0.591 | 0.586 | < 50 |  |  |  |  |  | reduced food intake | more than 10% | suppressed appetite was resolved by dose reduction to 30 mg/kg; also recorded: No weight loss or other toxicity was observed
